Assay: Insulinotropin infusion, plasma glucose levels in patients with NIDDM
Format: in vivo
Details: raising peptide around meal time alone, for periods of up to one hour

Substance: His-Asp-Glu-Phe-Glu-Arg-His-Ala-Glu-Gly-Thr-Phe-Thr-Ser-Asp-Val-Ser-Ser-Tyr-Leu-Glu-Gly-Gln-Ala-Ala-Lys-Glu-Phe-Ile-Ala-Trp-Leu-Val-Lys-Gly-Arg-Gly [GLP-1]
- glycemic control: will not adequately control the glucose levels

— patent US20030050237A1, “Prolonged delivery of peptides” (Scios Inc., priority 1993, published 2003)
